The test system of data set [1] is Methicillin resistant Staphylococcus epidermidis (MRSE) ATCC 35984 NRS101. Briefly: Antibacterial MIC assay, serial dilution. The format is cell-based.
The nature of data set [2]: Cytotoxicity assay (MTS/PMS). The class given is cell-based. The following applies: monkey, Vero cells (monkey kidney epithelial cells); 24 h treatment, MTS/PMS, average of three biological replicates; read-out: CC50 against Vero cells. The procedure, abridged:
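CC50 (µg/mL) was taken as the compound level that lowered vehicle-normalized viability to 50%, from MTS/PMS absorbance at 490 nm after 4 h with reagent. Monkey kidney Vero cells in DMEM/10% FBS received serial dilutions for 24 h at 37 °C, in three biological replicates.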

The subject of data set [3] is Pseudomonas aeruginosa. As to the kind of experiment: Antibacterial MIC assay, serial dilution. The class given is cell-based. A digest of the protocol: (§1)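 OD600 read-out, normalized to doxycycline and vehicle controls; MIC = lowest concentration inhibiting >90% of growth. Serial dilutions at final 128–1 μg/mL in CAMHB, inoculum OD600 0.004, 37 °C for 16–18 h (VRE 24 h). Two biological replicates in duplicate.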

The test system of data set [4] is Enterococcus faecalis ATCC 29212. As to the kind of experiment: Antibacterial MIC assay, serial dilution. The format is cell-based.
The test system of data set [5] is Vancomycin resistant Enterococcus faecium NR-31909 (VRE). Briefly: Antibacterial MIC assay, serial dilution. The format is cell-based. A digest of the protocol:
as §1

Data set [6] relates to Klebsiella pneumoniae ATCC 29665. Briefly: Antibacterial MIC assay, serial dilution. The format is cell-based. The procedure, abridged: as §1
For data set [7], the system named is Acinetobacter baumannii ATCC 17978. Briefly: Antibacterial MIC assay, serial dilution. The format is cell-based. The following applies: ATCC17978, range from biological replicates. The procedure, abridged:
as §1

The subject of data set [8] is Vancomycin resistant E. faecalis NR-31972 (VRE). Briefly: Antibacterial MIC assay, serial dilution. The format is cell-based, Enterococcus faecalis. A digest of the protocol:
as §1

For data set [9], the system named is Methicillin resistant S. aureus (MRSA) USA300. Briefly: Antibacterial MIC assay, serial dilution. The format is cell-based, Staphylococcus aureus.
The subject of data set [10] is Escherichia coli BAA-2452. As to the kind of experiment: Antibacterial MIC assay, serial dilution. The following applies: BAA2452, read-out: MIC Escherichia coli BAA-2452. The class given is cell-based.
The test system of data set [11] is S. aureus ATCC 6538P. Briefly: Antibacterial MIC assay, serial dilution. The class given is cell-based, Staphylococcus aureus. A digest of the protocol:
as §1

The test system of data set [12] is S. aureus ΔNorA. As to the kind of experiment: Antibacterial MIC assay, serial dilution. The format is cell-based, Staphylococcus aureus. A digest of the protocol:
as §1

The subject of data set [13] is MRSA ATCC 43300. Briefly: Antibacterial MIC assay, serial dilution. The class given is cell-based, Staphylococcus aureus. The procedure, abridged: as §1
In data set [14] the test system is bacteria. Briefly: Antibacterial assays, summary statements over the panel. The class given is cell-based. The following applies: against most S. aureus strains. Here is the method: Media and solutions were autoclaved or sterile filtered prior to use and mani pulations were carri ed out in a laminar flow hood. Antibacterial t esting was performed in polypropylene 96-well flat bottom plates. The minimal inhibitory concentration of blasticidin S (1) hydrochloride, methyl ester (3) trihydrochloride, P10 (2) tri-T FA , phenet hyl amide (4) tri -T FA , an d blastimidines M 19– 22, A, 29–32, P 37–40, and C 43–46 (salt forms as described in the te xt) were assessed against Staphylococcus aureus ΔNorA, S. aureus ATCC 6538P, methicillin-resistant S. aureus (MRSA) ATCC 43300, Enterococcus faecalis ATCC 29212, vancomycin- resistant Enterococcus, Klebsiella pneumoniae ATCC 29665, Pseudomonas aeruginosa,and Acinetobacter baumannii ATCC 17978 using serial dilutions. Doxycycline (Gold Bio) as a positive control and the vehicle as a negative control. Stock solutions of each compound were prepared at 2.56 mg/mL in 50% DMSO/water and serially diluted in 50% DMSO/water to create master plates. […]
Growth controls (wells with inoculated media but no vehicle or test compounds) were included to assess any potential toxicity from the vehicle. […] Inh ibition was determined by measuring the optical density at 600 nm (OD60 0) with a Cytation 3 pl ate read er (BioTek). […]

Here are results for one compound from paper PMC12856912, “Structure-Guided Semisynthesis of Blasticidin S–Amicetin Chimeras as Selective Ribosome Inhibitors” (Journal of the American Chemical Society, 2026).

SMILES strings stand for the structures. Converted amounts (≈) assume the structure as drawn.

Take `CNc1ccc(C(=O)Nc2ccn([C@H]3C=C[C@H](NC(=O)C[C@@H](N)CCN(C)C(=N)N)[C@@H](C(=O)OC)O3)c(=O)n2)cc1` [Blastimidine M3]: in data set [1] (CC50 Vero cells / MIC), the “Selectivity index (CC50/MIC) MRSE 35984” value was 26. Moreover, the MIC in [1] (Staphylococcus epidermidis, read-out: MIC Methicillin resistant Staphylococcus epidermidis (MRSE) ATCC 35984 NRS101) was 8 µg/mL (≈ 14 µM); in data set [3] (Pseudomonas aeruginosa, range from biological replicates, read-out: MIC P. aeruginosa) it was more than 128 µg/mL; in data set [4] (Enterococcus faecalis, ATCC 29112 / ATCC 29212, 24 h, read-out: MIC E. faecalis ATCC 29112), 16 µg/mL (≈ 28.1 µM); in data set [5] (Enterococcus faecium, VRE, 24 h, read-out: MIC Vancomycin resistant Enterococcus faecium NR-31909 (VRE)) it was 64 µg/mL (≈ 112 µM); in [6] (Klebsiella pneumoniae, ATCC29665, range from biological replicates, read-out: MIC K. pneumoniae ATCC-29665), 32 µg/mL (≈ 56.2 µM); in [7], more than 128 µg/mL. Also, the MIC in [8] (Enterococcus faecalis, VRE, 24 h, read-out: MIC Vancomycin resistant E. faecalis NR-31972 (VRE)) stood at 16 µg/mL (≈ 28.1 µM); in [9] (Staphylococcus aureus, read-out: MIC Methicillin resistant S. aureus (MRSA) USA300), 8 µg/mL (≈ 14 µM); in data set [10] it was 32 µg/mL (≈ 56.2 µM); in data set [11] (Staphylococcus aureus, ATCC 6538P / ATCC 6539P, read-out: MIC S. aureus ATCC 6539P), 8 µg/mL (≈ 14 µM); in [12] (Staphylococcus aureus, read-out: MIC S. aureus ∆NorA), 8 µg/mL (≈ 14 µM); in data set [13] (Staphylococcus aureus, read-out: MIC MRSA ATCC 43300), 16 µg/mL (≈ 28.1 µM). In addition, the CC50 at 24 h in [2] worked out at 205 µg/mL (≈ 360 µM). Also, in data set [3] (CC50 Vero cells / MIC), the “Selectivity index (CC50/MIC) P. aeruginosa” value is less than 1.6. For the same compound, in data set [4] (CC50 Vero cells / MIC), the “Selectivity index (CC50/MIC) E. faecalis 29212” value came out at 13. For the same compound, the “Selectivity index (CC50/MIC) VRE NR-31909” value in [5] (CC50 Vero cells / MIC) is given as 3.2. The “Selectivity index (CC50/MIC) K. pneumoniae” value in data set [6] (CC50 Vero cells / MIC) is on record as 6.4. Moreover, the “Selectivity index (CC50/MIC) VRE NR-31972” value in [8] (CC50 Vero cells / MIC) stood at 13. The “Selectivity index (CC50/MIC) MRSA USA300” value in data set [9] (CC50 Vero cells / MIC) is 26. In addition, the “Selectivity index (CC50/MIC) S. aureus 6538P” value in data set [11] (CC50 Vero cells / MIC) was 26. For the same compound, the “Selectivity index (CC50/MIC) S. aureus ΔNorA” value in data set [12] (CC50 Vero cells / MIC) came to 26. The “Selectivity index (CC50/MIC) MRSA 43300” value in [13] (CC50 Vero cells / MIC) is listed as 13. Besides, the “Selectivity index (SI)” value in data set [14] is recorded as more than 25.

A word on the MIC: it is the lowest concentration that inhibits growth of the organism. As usually defined, the CC50 is the concentration that lowers cell viability or growth by half.
